From the supplement of paper PMC10307832

Key:
Experiment in all cases: relative viability (nuclei count vs DMSO), 5 days (fraction); higher = more cells survive
[1] = compound: CC(C)(C)c1nc(-c2cccc(NS(=O)(=O)c3c(F)cccc3F)c2F)c(-c2ccnc(N)n2)s1 [Dabrafenib] + O=C(CCCCCCC(=O)Nc1ccccc1)NO [Vorinostat] (partner 1 µM)
Summary of the method: (§1)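 Five library-drug doses in √10 steps were combined with a fixed anchor-drug dose, or a single drug was given alone, by pin tool to lung cancer cell lines in 1536-well plates the day after seeding. Nuclei were stained and counted after 5 days. Relative viability is the nuclei count in treated wells over that in vehicle wells, taken as the median of duplicate plates.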

[2] = compound: NC(=O)c1ccc(N(C(N)=O)c2c(F)cccc2F)nc1-c1ccc(F)cc1F [VX-702] + CC(=O)Nc1cccc(-n2c(=O)n(C3CC3)c(=O)c3c(Nc4ccc(I)cc4F)n(C)c(=O)c(C)c32)c1 [Trametinib] (partner 0.02 µM)
Summary of the method: as §1

[3] = compound: NC(=O)c1ccc(N(C(N)=O)c2c(F)cccc2F)nc1-c1ccc(F)cc1F [VX-702] + CC(=O)c1c(C)c2cnc(Nc3ccc(N4CCNCC4)cn3)nc2n(C2CCCC2)c1=O [Palbociclib] (partner 0.5 µM)
Summary of the method: as §1

[4] = compound: NC(=O)c1ccc(N(C(N)=O)c2c(F)cccc2F)nc1-c1ccc(F)cc1F [VX-702] + N=C(N)NC(=N)NCCc1ccccc1 [Phenformin] (partner 250 µM)
Summary of the method: as §1

[5] = compound: NC(=O)c1ccc(N(C(N)=O)c2c(F)cccc2F)nc1-c1ccc(F)cc1F [VX-702] + Nc1ncn([C@H]2C[C@H](O)[C@@H](CO)O2)c(=O)n1 [Decitabine] (partner 2 µM)
Summary of the method: as §1

Q: What does the source list for SW 900?
A: relative viability ([1]; first compound 0.009487 µM): 0.455; relative viability ([1]; first compound 0.09487 µM): 0.714; relative viability ([1]; first compound 0.3 µM): 0.596; relative viability ([2]; first compound 0.02 µM): 0.775; relative viability ([2]; first compound 0.2 µM): 0.871; relative viability ([2]; first compound 0.6325 µM): 0.856; relative viability ([2]; first compound 2 µM): 0.795; relative viability ([3]; first compound 0.02 µM): 0.577; relative viability ([3]; first compound 0.2 µM): 0.566; relative viability ([3]; first compound 0.6325 µM): 0.575; relative viability ([3]; first compound 2 µM): 0.539; relative viability ([4]; first compound 0.02 µM): 0.634; relative viability ([4]; first compound 0.2 µM): 0.585; relative viability ([4]; first compound 0.6325 µM): 0.869; relative viability ([4]; first compound 2 µM): 0.546; relative viability ([5]; first compound 0.02 µM): 0.47; relative viability ([5]; first compound 0.2 µM): 0.375; relative viability ([5]; first compound 0.6325 µM): 0.393; relative viability ([5]; first compound 2 µM): 0.425
